Data from ChEMBL document CHEMBL1142478, “Small molecule modulators of toll-like receptors” (J Med Chem, 2008).
One block for each compound: values may come before it. Active and inactive are the calls of the source. No cut-off for these calls is given here. Where a SMILES comes first, the peptide text is derived from it. The star is where a group is joined. X1 = CCCCCCCCCCCCCC(=O)N[C@@H](C*)C(=O)NCCCCCCCC; Myristoyl = CCCCCCCCCCCCCC(=O)*

What was measured:
[1] = target: T1, Toll-like receptor 7 (Homo sapiens, UniProt Q9NYK1); test: (§1) Agonist activity at human TLR7 by luciferase reporter gene assay; format: functional
T1 sequence (Q9NYK1 whole entry): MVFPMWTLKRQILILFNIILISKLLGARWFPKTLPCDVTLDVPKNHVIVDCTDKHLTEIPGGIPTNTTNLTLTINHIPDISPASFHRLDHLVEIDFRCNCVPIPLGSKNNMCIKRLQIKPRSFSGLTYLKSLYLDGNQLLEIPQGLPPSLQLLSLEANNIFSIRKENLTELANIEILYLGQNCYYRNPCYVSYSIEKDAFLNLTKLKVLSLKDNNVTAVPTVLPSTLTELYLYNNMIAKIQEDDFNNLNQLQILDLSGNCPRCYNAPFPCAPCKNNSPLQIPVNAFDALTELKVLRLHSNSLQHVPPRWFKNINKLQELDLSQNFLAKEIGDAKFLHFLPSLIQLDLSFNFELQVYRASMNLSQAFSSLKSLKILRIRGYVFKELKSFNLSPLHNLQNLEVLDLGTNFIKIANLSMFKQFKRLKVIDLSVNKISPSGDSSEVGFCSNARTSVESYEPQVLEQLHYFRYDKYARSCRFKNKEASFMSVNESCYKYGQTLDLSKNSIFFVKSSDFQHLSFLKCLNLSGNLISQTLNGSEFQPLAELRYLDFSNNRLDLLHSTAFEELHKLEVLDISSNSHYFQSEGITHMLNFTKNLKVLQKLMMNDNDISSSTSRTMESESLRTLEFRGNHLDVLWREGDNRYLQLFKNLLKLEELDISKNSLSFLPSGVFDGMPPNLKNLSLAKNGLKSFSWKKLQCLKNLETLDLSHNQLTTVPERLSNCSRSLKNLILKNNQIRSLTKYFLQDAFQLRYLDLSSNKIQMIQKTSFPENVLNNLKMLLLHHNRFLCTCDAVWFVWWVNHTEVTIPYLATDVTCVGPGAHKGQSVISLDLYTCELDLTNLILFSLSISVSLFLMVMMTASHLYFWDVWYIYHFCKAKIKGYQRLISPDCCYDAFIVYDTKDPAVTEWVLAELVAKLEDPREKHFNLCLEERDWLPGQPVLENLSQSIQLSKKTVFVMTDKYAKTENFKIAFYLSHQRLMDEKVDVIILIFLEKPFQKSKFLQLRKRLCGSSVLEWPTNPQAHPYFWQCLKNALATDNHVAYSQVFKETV

[2] = target: Toll-like receptor 4 (Mus musculus) (UniProt Q9QUK6); test: Inhibition of mouse TLR4-mediated cytokine production in mouse macrophages
[3] = target: T2, Toll-like receptor 8 (Homo sapiens, UniProt Q9NR97); test: Agonist activity at human TLR8 expressed in HEK cells by NF-kappaB luciferase reporter gene assay; format: functional, cell-based, HEK293
T2 sequence (Q9NR97 whole entry): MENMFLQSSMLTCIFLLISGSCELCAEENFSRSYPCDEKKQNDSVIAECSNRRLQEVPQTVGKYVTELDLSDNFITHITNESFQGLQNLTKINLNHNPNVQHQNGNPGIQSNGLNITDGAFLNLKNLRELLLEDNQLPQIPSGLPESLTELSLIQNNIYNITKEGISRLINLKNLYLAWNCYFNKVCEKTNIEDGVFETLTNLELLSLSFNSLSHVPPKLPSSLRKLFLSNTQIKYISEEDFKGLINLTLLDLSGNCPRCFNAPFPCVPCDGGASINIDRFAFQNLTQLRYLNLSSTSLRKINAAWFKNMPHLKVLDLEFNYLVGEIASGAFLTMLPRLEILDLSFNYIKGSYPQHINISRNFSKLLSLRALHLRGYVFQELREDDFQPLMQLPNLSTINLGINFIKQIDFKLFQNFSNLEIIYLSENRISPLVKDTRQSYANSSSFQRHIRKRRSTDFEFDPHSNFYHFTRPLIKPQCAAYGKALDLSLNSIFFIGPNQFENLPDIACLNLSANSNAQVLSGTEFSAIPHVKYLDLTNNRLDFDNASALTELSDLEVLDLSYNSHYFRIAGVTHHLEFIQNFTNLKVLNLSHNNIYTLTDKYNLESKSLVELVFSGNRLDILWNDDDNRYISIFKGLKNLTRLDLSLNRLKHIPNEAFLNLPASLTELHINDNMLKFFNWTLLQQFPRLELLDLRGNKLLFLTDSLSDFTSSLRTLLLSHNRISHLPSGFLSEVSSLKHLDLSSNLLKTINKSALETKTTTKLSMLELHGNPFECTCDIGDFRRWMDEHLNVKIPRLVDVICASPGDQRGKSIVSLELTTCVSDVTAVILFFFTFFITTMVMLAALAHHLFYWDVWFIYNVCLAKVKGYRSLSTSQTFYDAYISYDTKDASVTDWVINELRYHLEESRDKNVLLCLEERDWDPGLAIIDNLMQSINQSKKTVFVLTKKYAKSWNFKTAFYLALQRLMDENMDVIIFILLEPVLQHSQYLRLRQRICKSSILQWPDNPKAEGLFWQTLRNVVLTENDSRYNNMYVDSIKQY

[4] = target: T2, Toll-like receptor 8; test: Agonist activity at TLR8 in human PBMC cells assessed as TNFalpha level by ELISA; format: functional, cell-based
[5] = target: T1, Toll-like receptor 7; test: Agonist activity at TLR7 in human PBMC cells assessed as stimulation of interferon release; format: functional, cell-based
[6] = target: T3, Toll-like receptor 2 (Homo sapiens, UniProt O60603); test: Antagonist activity at human TLR2 expressed in HE293 cells co-transfected with pELAM by luciferase reporter gene assay; format: functional, cell-based, HEK293
T3 sequence (O60603 whole entry): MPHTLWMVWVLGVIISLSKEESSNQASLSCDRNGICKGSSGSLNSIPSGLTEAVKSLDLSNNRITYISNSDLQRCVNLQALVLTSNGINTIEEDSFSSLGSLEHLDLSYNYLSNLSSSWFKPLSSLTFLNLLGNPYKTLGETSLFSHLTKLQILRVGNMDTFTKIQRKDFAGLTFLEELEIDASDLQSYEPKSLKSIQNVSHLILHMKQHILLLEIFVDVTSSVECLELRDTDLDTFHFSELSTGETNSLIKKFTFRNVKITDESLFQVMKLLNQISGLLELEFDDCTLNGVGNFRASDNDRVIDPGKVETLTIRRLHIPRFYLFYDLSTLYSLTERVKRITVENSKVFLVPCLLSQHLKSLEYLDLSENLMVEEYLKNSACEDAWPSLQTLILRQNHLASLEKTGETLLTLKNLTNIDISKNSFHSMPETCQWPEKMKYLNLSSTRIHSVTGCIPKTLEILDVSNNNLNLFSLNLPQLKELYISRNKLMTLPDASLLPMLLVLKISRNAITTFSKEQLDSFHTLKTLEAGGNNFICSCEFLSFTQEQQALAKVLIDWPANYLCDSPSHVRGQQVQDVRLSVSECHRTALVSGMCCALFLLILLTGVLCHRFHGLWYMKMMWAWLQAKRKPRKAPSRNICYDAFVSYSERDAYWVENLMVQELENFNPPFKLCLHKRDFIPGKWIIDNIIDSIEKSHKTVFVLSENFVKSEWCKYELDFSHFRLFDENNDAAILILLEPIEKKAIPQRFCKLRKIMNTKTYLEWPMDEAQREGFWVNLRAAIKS

[7] = target: T3, Toll-like receptor 2; test: Inhibition of TLR2-mediated IL8 secretion in human THP1 cells; format: cell-based, THP-1
[8] = species on record: Homo sapiens; test: Selectivity for human TLR2 over human TLR4
[9] = target: T4, Toll-like receptor 7 (Homo sapiens) (UniProt Q9NYK1); test: as §1; format: functional
T4 sequence (whole entry): T1 sequence (Q9NYK1 whole entry)

[10] = target: T5, Toll-like receptor 4 (Homo sapiens, UniProt O00206); test: Antagonist activity at human TLR4 expressed in HE293 cells by ELAM1-luciferase reporter gene assay; format: functional, cell-based, HEK293
T5 sequence (O00206 whole entry): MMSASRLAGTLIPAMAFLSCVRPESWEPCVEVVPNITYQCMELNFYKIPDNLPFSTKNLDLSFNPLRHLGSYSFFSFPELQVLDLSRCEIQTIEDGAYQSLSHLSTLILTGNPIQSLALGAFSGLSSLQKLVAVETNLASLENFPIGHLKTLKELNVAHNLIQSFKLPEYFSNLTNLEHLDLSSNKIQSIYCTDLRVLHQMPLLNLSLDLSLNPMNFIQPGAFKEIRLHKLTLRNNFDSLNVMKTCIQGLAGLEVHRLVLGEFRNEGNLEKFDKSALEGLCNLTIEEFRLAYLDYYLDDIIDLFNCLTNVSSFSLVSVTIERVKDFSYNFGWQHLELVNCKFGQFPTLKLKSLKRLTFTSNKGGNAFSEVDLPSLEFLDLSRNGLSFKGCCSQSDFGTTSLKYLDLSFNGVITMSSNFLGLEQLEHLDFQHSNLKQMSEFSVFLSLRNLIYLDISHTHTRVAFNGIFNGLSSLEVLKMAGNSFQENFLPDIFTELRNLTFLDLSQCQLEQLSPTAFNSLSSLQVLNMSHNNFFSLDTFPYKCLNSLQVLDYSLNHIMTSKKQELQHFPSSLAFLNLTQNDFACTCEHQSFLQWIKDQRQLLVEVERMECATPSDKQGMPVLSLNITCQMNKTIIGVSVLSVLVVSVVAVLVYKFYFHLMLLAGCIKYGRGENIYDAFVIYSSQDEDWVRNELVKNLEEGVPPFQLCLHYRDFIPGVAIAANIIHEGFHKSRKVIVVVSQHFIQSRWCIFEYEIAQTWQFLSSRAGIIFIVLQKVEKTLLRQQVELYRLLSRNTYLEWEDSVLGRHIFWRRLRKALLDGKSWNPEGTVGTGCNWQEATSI

[11] = target: T5, Toll-like receptor 4; test: Antagonist activity at TLR4 in human PBMC cells assessed as suppression of LPS-induced cytokine upregulation; format: functional, cell-based
[12] = target: T5, Toll-like receptor 4; test: Antagonist activity at TLR4 in human HL60 cells assessed as inhibition of LPS-induced cytokine production; format: functional, cell-based, HL-60
[13] = target: T5, Toll-like receptor 4; test: Antagonist activity at human TLR4 assessed as inhibition of LPS-induced cytokine production in HL-60 cells
[14] = target: T6, Toll-like receptor 9 (Homo sapiens, UniProt Q9NR96); test: Antagonist activity at human TLR9 expressed in HEK293 cells assessed as blockade of CpG oligonucleotide-induced immune response by NF-kappaB luciferase reporter gene assay; format: functional, cell-based
T6 sequence (Q9NR96 whole entry): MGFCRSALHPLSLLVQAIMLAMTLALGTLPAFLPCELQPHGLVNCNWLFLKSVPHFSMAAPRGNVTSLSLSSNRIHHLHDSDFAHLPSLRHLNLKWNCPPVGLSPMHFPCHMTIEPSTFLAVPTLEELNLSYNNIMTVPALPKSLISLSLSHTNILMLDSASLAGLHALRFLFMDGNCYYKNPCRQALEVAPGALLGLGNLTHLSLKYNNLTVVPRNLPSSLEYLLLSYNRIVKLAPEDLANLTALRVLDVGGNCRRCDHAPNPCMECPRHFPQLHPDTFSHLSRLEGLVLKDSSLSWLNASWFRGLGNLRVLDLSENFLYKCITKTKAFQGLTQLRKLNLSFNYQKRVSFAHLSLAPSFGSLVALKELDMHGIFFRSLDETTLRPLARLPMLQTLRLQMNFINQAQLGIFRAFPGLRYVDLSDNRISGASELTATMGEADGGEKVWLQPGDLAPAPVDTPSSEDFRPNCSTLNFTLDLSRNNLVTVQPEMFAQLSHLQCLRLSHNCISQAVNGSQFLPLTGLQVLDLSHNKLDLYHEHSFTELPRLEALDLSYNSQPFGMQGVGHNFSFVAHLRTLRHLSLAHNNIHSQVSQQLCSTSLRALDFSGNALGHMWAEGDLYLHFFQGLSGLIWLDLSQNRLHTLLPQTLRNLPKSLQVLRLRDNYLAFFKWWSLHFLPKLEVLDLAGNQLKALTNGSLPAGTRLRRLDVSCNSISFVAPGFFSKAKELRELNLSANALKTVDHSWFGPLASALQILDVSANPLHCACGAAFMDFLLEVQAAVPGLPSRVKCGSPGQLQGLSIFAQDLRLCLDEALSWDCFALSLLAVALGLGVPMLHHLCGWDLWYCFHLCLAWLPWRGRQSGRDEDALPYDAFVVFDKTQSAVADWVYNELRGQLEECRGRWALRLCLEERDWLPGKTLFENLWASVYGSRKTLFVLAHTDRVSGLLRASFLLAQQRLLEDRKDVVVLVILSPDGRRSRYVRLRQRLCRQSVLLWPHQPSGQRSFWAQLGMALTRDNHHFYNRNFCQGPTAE

Compound: CCCCCCCCCCCCCC(=O)N[C@@H](COP(=O)(O)OCCNC(=O)[C@@H](NC(=O)Cc1ccc(O)cc1)[C@@H](C)C(=O)O)C(=O)NCCC(CCCCCCC)OC(=O)CCCCCCCCCCC (some centres undefined)
IC50 [6]: 900 nM

Compound: CCOC(=O)C1=CCCCC1S(=O)(=O)NC1=NCCS1 (centres undefined)
IC50 [2]: > 10000 nM

Compound: CCCCCCCCCCCCCC(=O)N[C@@H](CSC[C@H](NC(=O)CCCCCCCCCCCCC)C(=O)N[C@@H](CO)C(=O)N[C@@H](CCCCN)C(=O)N[C@@H](CCCCN)C(=O)N[C@@H](CCCCN)C(=O)N[C@@H](CCCCN)C(N)=O)C(=O)NCCCCCCCC (Myristoyl-C(X1)SKKKK-NH2)
IC50 [7]: 5000 nM

Compound: CCCCCCCCCCCCCCCCCCCC(=O)N[C@@H](COP(=O)(O)OCCNC(=O)[C@@H](NC(=O)Cc1c[nH]c2ccc(OCc3ccccc3)cc12)[C@@H](C)CC)C(=O)NCCC(O)CCCCCCCCCCCCC (some centres undefined)
IC50 [6]: 240 nM | Selectivity ratio [8]: > 25

Compound: CCCCCCCCCCCCCCCC(=O)N[C@@H](COP(=O)(O)OCCNC(=O)[C@@H](NC(=O)Cc1c[nH]c2ccc(-c3ccccc3)cc12)[C@@H](C)CC)C(=O)NCCCOC(=O)CCCCCCCCCCC
IC50 [6]: 230 nM

Compound: CCOC(=O)C1=CCCC1S(=O)(=O)Nc1ccc(F)cc1Cl (centres undefined)
IC50 [2]: 110 nM

Compound: Cc1ccc(Cn2c(=O)[nH]c3c(N)nc(-c4nccs4)cc32)cn1
EC50 [1]: 100 nM

Compound: CCOC(=O)c1ccccc1S(=O)(=O)Nc1ccc(F)cc1Cl
IC50 [2]: > 10000 nM

Compound: CCOC(=O)C1=CCCCC1S(=O)(=O)Nc1ccc(F)cc1Cl (centres undefined)
IC50 [2]: 3.2 nM

Compound: CCOC(=O)N1CC(N)=Nc2ccccc2C1
EC50 [3]: < 100000 nM | EC50 [4]: < 100000 nM

Compound: Nc1ccccc1Oc1ccc2c(N)nsc2c1
IC50 [10]: 7000 nM | IC50 [11]: 3000 nM

Compound: CCCCCCCCCCCCCCCCCCCC(=O)N[C@@H](COP(=O)(O)OCCNC(=O)[C@@H](NC(=O)Cc1c[nH]c2ccccc12)[C@@H](C)CC)C(=O)NCCC(O)CCCCCCCCCCCCC (some centres undefined)
IC50 [6]: 460 nM | Selectivity ratio [8]: > 25

Compound: CCCCCC/C=C\CCCCCCCCCC(=O)N[C@H]1[C@H](OC[C@H]2O[C@H](OP(=O)(O)O)[C@H](NC(=O)CC(=O)CCCCCCCCCCC)[C@@H](OCCCCCCCCCC)[C@@H]2O)O[C@H](COC)[C@@H](OP(=O)(O)O)[C@@H]1OCC[C@@H](CCCCCCC)OC [ERITORAN TETRASODIUM]
IC50 [12]: 1.5 nM | IC50 [13]: 1.5 nM

Compound: CCOC(=O)C1=CCCCC1S(=O)(=O)Nc1ccc(Cl)cc1F (centres undefined)
IC50 [2]: 160 nM

The next lines start with the values.

EC50 [1]: > 10000 nM
Compound: COCCOc1nc(N)c2nc(N)n(Cc3ccccc3)c2n1

IC50 [2]: 240 nM
Compound: CCOC(=O)C1=CCCCCC1S(=O)(=O)Nc1ccc(F)cc1Cl (centres undefined)

EC50 [3]: < 100000 nM | EC50 [4]: < 100000 nM
Compound: CCN(CC)C(=O)N1CC(N)=Nc2ccccc2C1

EC50 [1]: 10 nM | EC50 [5]: 10 nM
Compound: Nc1nc(NCc2ccccc2)nc2c1[nH]c(=O)n2Cc1cccc(CP(=O)(O)O)c1

EC50 [1]: 4400 nM
Compound: CCNc1nc2c(N)nc(OCCOC)nc2n1Cc1ccccc1

EC50 [1]: < 20 nM
Compound: COCCOc1nc(N)c2[nH]c(=O)n(CCCN(Cc3ccc(CC(=O)OC)cc3)C(=O)CN3CCN(C)CC3)c2n1

Activity [9]: inactive
Compound: CCN(CC)c1nc2c(N)nc(OCCOC)nc2n1Cc1ccccc1

EC50 [1]: < 20 nM
Compound: COCCOc1nc(N)c2[nH]c(=O)n(CCCN(Cc3ccc(CC(=O)OC)cc3)C(=O)CCC(=O)OC(C)(C)C)c2n1

EC50 [1]: 10 nM | EC50 [5]: 10 nM
Compound: COCCOc1nc(N)c2nc(S)n(Cc3cccc(CP(C)(=O)O)c3)c2n1

EC50 [1]: 790 nM
Compound: COCCOc1nc(N)c2nc(NN)n(Cc3ccccc3)c2n1

EC50 [1]: 3200 nM
Compound: COCCOc1nc(N)c2nc(NCCCO)n(Cc3ccccc3)c2n1

IC50 [14]: 3 nM
Compound: CN(C)CCNc1nc(-c2ccc(N3CCN(C)CC3)cc2)nc2ccccc12
